The values below come from US12459922B2 (Gilead Sciences, Inc., priority 2022, dated 2025).

Each structure is given as a SMILES string.

For the test, the system named is endogenous cellular STAT1 (phosphorylated at Tyr701) in NCI-H1373 cells. Description: Phospho-STAT1 (Tyr701) LANCE Ultra TR-FRET Detection Assay. Format: cell-based. The settings on record: Homo sapiens, NCI-H1373, 48 h, phospho-STAT1 (Tyr701) induction, read-out: NH1373 pSTAT1 EC50. For orientation: Time-resolved FRET reads energy transfer from a long-lived donor to a nearby acceptor.
With `O=c1[nH]ncc(N[C@H]2CCC[C@@H](Cn3ccc4cc(-c5ccc(C(F)(F)CO)cn5)c(F)cc4c3=O)C2)c1C(F)(F)F` [Example 279, 6-(5-(1,1-difluoro-2-hydroxyethyl)pyridin-2-yl)-7-fluoro-2-(((1R,3S)-3-((6-oxo-5-(trifluoromethyl)-1,6-dihydropyridazin-4-yl)amino)cyclohexyl)methyl)isoquinolin-1(2H)-one], the EC50 came out at 15.5 nM.
The result for `O=c1[nH]ncc(N2CC3(CC3)C[C@H]2CCCn2ccc3cc(-c4ncc(C(F)(F)F)cn4)c(F)cc3c2=O)c1C(F)(F)F` [Example 142, 7-fluoro-2-[3-[(6R)-5-[6-oxo-5-(trifluoromethyl)-1H-pyridazin-4-yl]-5-azaspiro[2.4]heptan-6-yl]propyl]-6-[5-(trifluoromethyl)pyrimidin-2-yl]isoquinolin-1-one] reads 38.6 nM.
Next, `CC[C@@H](CCCn1ccc2cc(-c3ncc(OC)c(N)n3)c(F)c(F)c2c1=O)Nc1cn[nH]c(=O)c1C(F)(F)F` [Example 350, (S)-6-(4-amino-5-methoxypyrimidin-2-yl)-7,8-difluoro-2-(4-((6-oxo-5-(trifluoromethyl)-1,6-dihydropyridazin-4-yl)amino)hexyl)isoquinolin-1(2H)-one]: 15.1 nM; `COc1cnc(-c2cc3ncn(CCC[C@@H]4C[C@@H](C)CN4c4cn[nH]c(=O)c4C(F)(F)F)c(=O)c3cc2F)nc1N` [Example 177, 7-(4-amino-5-methoxypyrimidin-2-yl)-6-fluoro-3-[3-[(2R,4R)-4-methyl-1-[6-oxo-5-(trifluoromethyl)-1H-pyridazin-4-yl]pyrrolidin-2-yl]propyl]quinazolin-4-one]: 537 nM.
Next, `Nc1cc(-c2cc3ccn(C[C@@H]4CCC[C@H](Nc5cn[nH]c(=O)c5C(F)(F)F)C4)c(=O)c3cc2F)cnc1C(F)(F)F` [Example 271, 6-(5-amino-6-(trifluoromethyl)pyridin-3-yl)-7-fluoro-2-(((1R,3S)-3-((6-oxo-5-(trifluoromethyl)-1,6-dihydropyridazin-4-yl)amino)cyclohexyl)methyl)isoquinolin-1(2H)-one]: 211 nM.
Turning to `C[C@@H](CCCn1ccc2cc(-c3ncc(OC(F)F)c(N)n3)c(F)cc2c1=O)Nc1cn[nH]c(=O)c1C(F)(F)F` [Example 194, (S)-6-(4-amino-5-(difluoromethoxy)pyrimidin-2-yl)-7-fluoro-2-(4-((6-oxo-5-(trifluoromethyl)-1,6-dihydropyridazin-4-yl)amino)pentyl)isoquinolin-1(2H)-one], the EC50 was 6.6 nM.
Next, `COc1cnc(-c2cc3ncn(CCC[C@H](C)Nc4cn[nH]c(=O)c4C(F)(F)F)c(=O)c3cc2F)nc1N` [Example 66, 7-(4-amino-5-methoxy-pyrimidin-2-yl)-6-fluoro-3-[(4S)-4-[[6-oxo-5-(trifluoromethyl)-1H-pyridazin-4-yl]amino]pentyl]quinazolin-4-one]: 71.5 nM.
For the compound `C[C@H](Nc1cn[nH]c(=O)c1C(F)(F)F)[C@H](O)CCn1ccc2cc(-c3ncc(C(F)(F)F)cn3)c(F)cc2c1=O` [Example 445, 7-fluoro-2-((3R,4S)-3-hydroxy-4-((6-oxo-5-(trifluoromethyl)-1,6-dihydropyridazin-4-yl)amino)pentyl)-6-(5-(trifluoromethyl)pyrimidin-2-yl)isoquinolin-1(2H)-one], the EC50 was found to be 18.5 nM.
The result for `O=c1[nH]ncc(N[C@H](CCCn2ccc3cc(-c4cnc(C(F)F)cn4)c(F)cc3c2=O)COC(F)F)c1C(F)(F)F` [Example 424, (R)-2-(5-(difluoromethoxy)-4-((6-oxo-5-(trifluoromethyl)-1,6-dihydropyridazin-4-yl)amino)pentyl)-6-(5-(difluoromethyl)pyrazin-2-yl)-7-fluoroisoquinolin-1(2H)-one] reads 3.11 nM.
On to `C[C@@H](CCCn1cnc2cc(-c3ccc(C(F)(F)F)c(N)n3)c(F)cc2c1=O)Nc1cn[nH]c(=O)c1C(F)(F)F` [Example 212], for which the EC50 turned out to be 36.6 nM.
Next, `O=c1[nH]ncc(N2Cc3ccccc3[C@H]2CCCn2ccc3cc(-c4ncc(C(F)(F)F)cn4)c(F)cc3c2=O)c1C(F)(F)F` [Example 182, 7-fluoro-2-[3-[(1R)-2-[6-oxo-5-(trifluoromethyl)-1H-pyridazin-4-yl]isoindolin-1-yl]propyl]-6-[5-(trifluoromethyl)pyrimidin-2-yl]isoquinolin-1-one]: 82.5 nM; `C[C@@H](CCCn1cnc2cc(-c3ncc(OCCO)cn3)c(F)cc2c1=O)Nc1cn[nH]c(=O)c1C(F)(F)F` [Example 127, (S)-6-fluoro-7-(5-(2-hydroxyethoxy)pyrimidin-2-yl)-3-(4-((6-oxo-5-(trifluoromethyl)-1,6-dihydropyridazin-4-yl)amino)pentyl)quinazolin-4(3H)-one]: 474 nM; `O=c1[nH]ncc(N[C@H](CCCn2ccc3cc(-c4ncc(C(F)(F)F)cn4)c(F)cc3c2=O)CC(F)(F)F)c1C(F)(F)F` [Example 453, (R)-7-fluoro-2-(6,6,6-trifluoro-4-((6-oxo-5-(trifluoromethyl)-1,6-dihydropyridazin-4-yl)amino)hexyl)-6-(5-(trifluoromethyl)pyrimidin-2-yl)isoquinolin-1(2H)-one]: 215 nM.
The result for `O=c1[nH]ncc(N[C@H](CCCn2ccc3cc(-c4ccc(C(F)(F)F)cn4)c(F)c(F)c3c2=O)COC(F)F)c1C(F)(F)F` [Example 407, (R)-2-(5-(difluoromethoxy)-4-((6-oxo-5-(trifluoromethyl)-1,6-dihydropyridazin-4-yl)amino)pentyl)-7,8-difluoro-6-(5-(trifluoromethyl)pyridin-2-yl)isoquinolin-1(2H)-one] reads 1.99 nM; that for `C[C@@H](CCCn1ccc2cc(-c3nc(N)ncc3C(F)F)c(F)c(F)c2c1=O)Nc1cn[nH]c(=O)c1C(F)(F)F` [Example 114, 6-[2-amino-5-(difluoromethyl)pyrimidin-4-yl]-7,8-difluoro-2-[(4S)-4-[[6-oxo-5-(trifluoromethyl)-1H-pyridazin-4-yl]amino]pentyl]isoquinolin-1-one], 852 nM; that for `C[C@@H](CCCn1ccc2cc(-c3ncc(S(C)(=O)=O)cn3)c(F)cc2c1=O)Nc1cn[nH]c(=O)c1C(F)(F)F` [Example 84, (S)-7-fluoro-6-(5-(methylsulfonyl)pyrimidin-2-yl)-2-(4-((6-oxo-5-(trifluoromethyl)-1,6-dihydropyridazin-4-yl)amino)pentyl)isoquinolin-1(2H)-one], 263 nM.
Regarding `O=c1[nH]ncc(N2CCC2CCCn2cnc3cc(-c4ncc(C(F)(F)F)cn4)c(F)cc3c2=O)c1C(F)(F)F` (stereo not shown) [Example 150, 6-fluoro-3-[3-[1-[6-oxo-5-(trifluoromethyl)-1H-pyridazin-4-yl]azetidin-2-yl]propyl]-7-[5-(trifluoromethyl)pyrimidin-2-yl]quinazolin-4-one], the EC50 was 19.1 nM.
The result for `O=c1[nH]ncc(N2CCC2CCCn2ccc3cc(-c4ncc(C(F)(F)F)cn4)c(F)cc3c2=O)c1C(F)(F)F` (stereo not shown) [Example 72, 7-fluoro-2-[3-[1-[6-oxo-5-(trifluoromethyl)-1H-pyridazin-4-yl]azetidin-2-yl]propyl]-6-[5-(trifluoromethyl)pyrimidin-2-yl]isoquinolin-1-one] reads 5.85 nM.
For the compound `O=c1[nH]ncc(N2C[C@H](F)C[C@H]2CCCn2ccc3cc(-c4ncc(C(F)(F)F)cn4)c(F)cc3c2=O)c1C(F)(F)F` [Example 140, 7-fluoro-2-[3-[(2R,4R)-4-fluoro-1-[6-oxo-5-(trifluoromethyl)-1H-pyridazin-4-yl]pyrrolidin-2-yl]propyl]-6-[5-(trifluoromethyl)pyrimidin-2-yl]isoquinolin-1-one], the concentration giving a half-maximal response (EC50) was found to be 585 nM.
The result for `O=c1[nH]ncc(N[C@H](CCCn2cnc3cc(-c4cnc(OC(F)F)cn4)c(F)cc3c2=O)COC(F)F)c1C(F)(F)F` [Example 373, (R)-3-(5-(difluoromethoxy)-4-((6-oxo-5-(trifluoromethyl)-1,6-dihydropyridazin-4-yl)amino)pentyl)-7-(5-(difluoromethoxy)pyrazin-2-yl)-6-fluoroquinazolin-4(3H)-one] reads 16.6 nM; that for `CN(CCCn1ccc2cc(-c3ncc(C(F)(F)F)cn3)c(F)cc2c1=O)Nc1cn[nH]c(=O)c1C(F)(F)F` [Example 172, 7-fluoro-2-(3-(1-methyl-2-(6-oxo-5-(trifluoromethyl)-1,6-dihydropyridazin-4-yl)hydrazineyl)propyl)-6-(5-(trifluoromethyl)pyrimidin-2-yl)isoquinolin-1(2H)-one], 1010 nM.
The result for `Nc1nc(-c2cc3ccn(C[C@@H]4CCC[C@H](Nc5cn[nH]c(=O)c5C(F)(F)F)C4)c(=O)c3cc2F)ncc1OC(F)F` [Example 260, 6-(4-amino-5-(difluoromethoxy)pyrimidin-2-yl)-7-fluoro-2-(((1R,3S)-3-((6-oxo-5-(trifluoromethyl)-1,6-dihydropyridazin-4-yl)amino)cyclohexyl)methyl)isoquinolin-1(2H)-one] reads 12.7 nM.
The result for `Cn1nc(-c2cc3ccn(C[C@@H]4CCC[C@H](Nc5cn[nH]c(=O)c5C(F)(F)F)C4)c(=O)c3cc2F)cc1C(F)(F)F` [Example 491, 7-fluoro-6-[1-methyl-5-(trifluoromethyl)pyrazol-3-yl]-2-[[(1R,3S)-3-[[6-oxo-5-(trifluoromethyl)-1H-pyridazin-4-yl]amino]cyclohexyl]methyl]isoquinolin-1-one] reads 50.5 nM.
`Nc1nc(-c2cc3ccn(C[C@@H]4CCC[C@H](Nc5cn[nH]c(=O)c5C(F)(F)F)C4)c(=O)c3cc2F)ncc1Cl` [Example 250, 6-(4-amino-5-chloropyrimidin-2-yl)-7-fluoro-2-(((1R,3S)-3-((6-oxo-5-(trifluoromethyl)-1,6-dihydropyridazin-4-yl)amino)cyclohexyl)methyl)isoquinolin-1(2H)-one]: the EC50 is 4.71 nM.
The result for `CCOC[C@@H](CCCn1ccc2cc(-c3ncc(C(F)(F)F)cn3)c(F)cc2c1=O)Nc1cn[nH]c(=O)c1C(F)(F)F` [Example 180, (R)-2-(5-ethoxy-4-((6-oxo-5-(trifluoromethyl)-1,6-dihydropyridazin-4-yl)amino)pentyl)-7-fluoro-6-(5-(trifluoromethyl)pyrimidin-2-yl)isoquinolin-1(2H)-one] reads 1.89 nM.

What is called EC50 is the midpoint of the concentration-response curve.
